# In patent publication US4052403A, “2-Hydroxyimino-1,2,3,4,6,7-hexahydro-11bH-benzo [a] quinolisine derivatives” (EGYT Gyogyszervegyeszeti Gyar, priority 1975, dated 1977):
# Where “and” joins values, the source holds several entries; their conditions need not be identical. Equal values may be shown once. Entries after “also recorded” stand apart in the source; their conditions may differ.
# Columns and labels:
# [1] = tested on: amphetamine-provoked hypermotility; assay: inhibition of amphetamine-provoked hypermotility (psychosedative effect); type: in vivo; conditions: mice, amphetamine 3 mg/kg s.c. simultaneously, control = 100%
# Method: This conclusion was based upon experimentation with mice by measuring their inhibition ability exerted on amphetamine-provoked hypermotility. the animals so tested were treated subcutaneously with 3 mg/kg of amphetamine (α-methyl-phenethylamine)while simultaneously administering the novel compound of formula (I) herein. A control test was run in which no psychosedative agent was used. The extent of hypermotility observed in the control group treated only with 3 mg/kg of amphetamine was regarded as 100%, and the percentage of inhibition observed in the test groups was related to this value.
# [2] = tested on: waking cats; assay: behavioural effects in waking cats, compared with scopolamine; type: in vivo; conditions: for akinesia / standing position / behavioural effects in cats (first effects) / paralysis: s.c. 100 mg/kg isomer "b", 150 mg/kg scopolamine; for paralysis: 30 minutes after administration
# Method: Accordingly, the effects of this "b" iosmer were compared directly with scopolamine by the use of a subcutaneous dosage of 100 mg/kg of the former and 150 mg/kg of the latter.
# [3] = tested on: waking dogs; assay: behavioural effects in waking dogs, compared with scopolamine; type: in vivo
# [4] = tested on: analgesic effect of morphine; assay: potentiation of the analgesic effect of morphine; conditions: in vivo
# [5] = tested on: narcosis provoked by hexobarbital; assay: potentiation of the narcosis provoked by hexobarbital; conditions: in vivo
# [6] = acute toxicity, subcutaneous administration; conditions: mouse, in vivo, sc, mice
# Method: The acute toxicities of the new compounds having the general formula (I) were measured on mice, under subcutaneous administration.
# [7] = anticholinergic / atropine-like activity; conditions: in vivo
# [8] = well-known, cited from earlier work
smiles,measurement,setting,value
"COc1cc2c(cc1OC)C1CC(=NO)C3CCCCC3N1CC2 (stereo not shown) [2-Hydroxyimino-3,4-cyclohexano-9,10-dimethoxy-1,2,3,4,6,7-he] [2-Hydroxyimino-3,4-cyclohexano-9,10-dimethoxy-1,2,3,4,6,7-hexahydro-11bH-benzo[a]quinolisine]",Inhibition (of amphetamine-provoked hypermotility),[1]; 20 mg/kg s.c.,66%
same,Inhibition (of amphetamine-provoked hypermotility),[1]; 100 mg/kg s.c.,33%
same,akinesia / standing position,[2]; cats,"more complete akinesia than scopolamine; also recorded: could not be brought to a standing position, their limbs immediately sliding apart although the carriage of their heads remained stationary"
same,behavioural effects in cats (first effects),[2]; cats,restlessness coupled with hallucinations of the same type and degree
same,paralysis,[2]; cats,all animals were paralyzed
same,response to capsaicine dropped into the eyes,"[2]; cats, s.c., capsaicine into eyes",long-lasting blepharospasm and mewing
same,response to painful stimuli,"[2]; cats, s.c., painful stimuli",strong mewing response
same,symptoms in waking cats compared with scopolamine,[2]; waking cats,symptons similar to those os scopolamine
same,symptoms in waking dogs compared with scopolamine,[3],symptons similar to those os scopolamine
same,"awakening upon smell, slight noise and tactile stimuli",[3]; 10 mg/kg s.c.,"not a narcotic effect, for the dogs were awakened readily upon smell stimuli related to food or slight noice and tactile stimuli"
same,behavior after awakening,[3]; 10 mg/kg s.c.,normal behavior after awakening
same,behavioural effects in waking dogs,[3]; 10 mg/kg s.c.,remarkable quietness and the animals fell asleep
same,potentiation of the analgesic effect of morphine,[4],did not potentiate the analgesic effect of morphine
same,potentiation of the narcosis provoked by hexobarbital,[5],nor did it potentiate the narcosis provoked by hexobarbital
"COc1cc2c(cc1OC)C1CC(=NO)C3CCCC3N1CC2 (stereo not shown) [2-Hydroxyimino-3,4-cyclopentano-9,10-dimethoxy-1,2,3,4,6,7-hexahydro-11bH-benzo[a]quinolisine]",LD50,[6],> 500 mg/kg
"COc1cc2c(cc1OC)C1CC(=NO)C3CCCC3N1CC2 (stereo not shown) [2-Hydroxyimino-3,4-cyclopentano-9,10-dimethoxy-1,2,3,4,6,7-h] [2-Hydroxyimino-3,4-cyclopentano-9,10-dimethoxy-1,2,3,4,6,7-hexahydro-11bH-benzo[a]quinolisine]",Inhibition (of amphetamine-provoked hypermotility),[1]; 100 mg/kg s.c.,40% and 61%
CN1[C@@H]2C[C@@H](OC(=O)[C@H](CO)c3ccccc3)C[C@H]1[C@@H]1O[C@@H]12 [scopolamine],akinesia / standing position,[2]; cats,remained in a standing position
same,behavioural effects in cats (first effects),[2]; cats,restlessness coupled with hallucinations of the same type and degree
same,paralysis,[2]; cats,all animals were paralyzed
same,anticholinerg activity,[7],did not exert anticholinerg activity
same,atropine-like effect,[7],marked atropine-like effect
same,therapeutic psychosedative effects,[8]; small dosages,therapeutic psychosedative effects
same,side effects,[8],strong atropine-like parasympatholytic side effects
"CCOc1cc2c(cc1OCC)C1CC(=NO)C3CCCCC3N1CC2 (stereo not shown) [2-Hydroxyimino-3,4-cyclohexano-9,10-diethoxy-1,2,3,4,6,7,-hexahydro-11bH-benzo[a]quinolisine]",Inhibition (of amphetamine-provoked hypermotility),[1]; 100 mg/kg s.c.,85%
same,LD50,[6],> 300 mg/kg
